Measured values published in patent US20230143604A1, “QW DOSING OF GIP RECEPTOR AGONIST PEPTIDE COMPOUNDS AND USES THEREOF” (TAKEDA PHARMACEUTICAL COMPANY LIMITED, priority 2020, published 2023).
Read-outs that look alike come from different tables or passages of the source. Positions of bridges follow the written chain, without caps; N, C: chain ends. Non-standard residues stand in square brackets, D forms with d. Chains are numbered I, II in the order given. *: point of attachment. C18 diacid = O=C(O)CCCCCCCCCCCCCCCCC(=O)*; NMeY = CN[C@@H](Cc1ccc(O)cc1)C(=O)O; Aib = CC(C)(N)C(=O)O

What was measured:
[1] = target: T1, human GIPR (Homo sapiens, UniProt P48546); assay: Human GIPR agonist activity, intracellular cAMP accumulation; format: cell-based
T1 construct: HEK-293T cells overexpressing full-length human GIPR; FLAG (N); host or cells: HEK-293T
T1 sequence (P48546 22-466): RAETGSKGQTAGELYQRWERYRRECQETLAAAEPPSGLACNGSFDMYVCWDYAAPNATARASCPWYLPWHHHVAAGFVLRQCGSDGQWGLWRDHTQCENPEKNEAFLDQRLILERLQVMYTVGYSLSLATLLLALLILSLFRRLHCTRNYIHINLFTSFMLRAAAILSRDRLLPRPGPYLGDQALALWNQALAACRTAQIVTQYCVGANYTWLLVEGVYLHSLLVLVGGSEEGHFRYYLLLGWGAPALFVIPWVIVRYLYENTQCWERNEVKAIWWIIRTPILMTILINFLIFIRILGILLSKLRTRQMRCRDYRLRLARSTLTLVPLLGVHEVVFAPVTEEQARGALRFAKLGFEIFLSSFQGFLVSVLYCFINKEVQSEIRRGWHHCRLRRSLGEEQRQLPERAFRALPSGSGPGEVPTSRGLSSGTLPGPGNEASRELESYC
Procedure: Cells are cultured per the manufacturer's protocol in DMEM with 10% fetal bovine serum and 1 μg/mL puromycin and stored in frozen aliquots to be used as assay ready cells. On the day of the assay, cells are removed from frozen storage, washed two times in 1× Kreb's Ringer Buffer (Zenbio, Research Triangle Park, N.C.), and re-suspended to a concentration of 4×10^5 cells/mL in 1× Kreb's Ringer Buffer. […] Cells are incubated with test compound for 1 hr at room temperature in the dark, and cAMP accumulation is measured using the Cisbio HiRange cAMP assay kit (Bedford, Mass.) per the manufacturer's protocol. Anti-cAMP antibody and d2-cAMP tracer reagents diluted in lysis/detection buffer are incubated in the dark for 1 hr, and results are measured on an Envision plate reader (Perkin Elmer, Waltham, Mass.). Data is normalized using 1 nM GIP as 100% activity, and DMSO alone as 0% activity.

[2] = target: T2, human GLP-1R (Homo sapiens, UniProt P43220); assay: Human GLP1R agonist activity, intracellular cAMP accumulation; format: cell-based; conditions: HEK-293T cells overexpressing human GLP-1R, 1 hr
T2 construct: HEK-293T cells overexpressing full-length human GLP-1R; FLAG (N); host or cells: HEK-293T
How it was run: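 cAMP accumulation is measured by HTRF after a 1 hr, room-temperature, dark exposure of thawed cells (4×10^5 cells/mL in Krebs Ringer buffer) to compound. Activity is scaled between DMSO alone as 0% and 1 nm GLP-1 as 100%.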

[3] = test system: C57BL/6J mice; assay: Oral glucose tolerance test (OGTT); format: in vivo; conditions: 3 nmol/kg s.c., 24 hours before glucose loading
How it was run: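 Peptide or vehicle given s.c. at 0.1, 0.3, 3 or 10 nmol/kg (peptide-dependent), 24 h before oral 50% dextrose at 5 ml/kg unless stated otherwise. Blood glucose read at 0, 15, 30 and 60 min. % inhibition = (1−(AUC cpd−AUC naïve)/(AUC veh−AUC naïve))×100.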

[4] = Solubility in phosphate buffer pH 7.4
How it was run: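 Solubility at pH 7.4 determined by stepwise addition of 200 mM phosphate buffer in 100 μL increments to 3 mg peptide, mixing briefly each time, until no insoluble material remained, then measured by liquid chromatography.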

[5] = Human plasma protein binding (PPB); format: in vitro ADME; conditions: both sexes, pH 7.4; fraction unbound; human plasma, 1000 nmol/L peptide, ultracentrifugation; read-out: Human PPB (FUplasma)
How it was run: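 Peptides spiked at 1000 nmol/L into pooled human K2-EDTA plasma adjusted to pH 7.4, incubated 30 min at 37 °C, then ultracentrifuged at ~450,000 g, 4 °C for 3 h. Fu derived from LC-MS/MS (MRM) peak area ratios, supernatant versus plasma.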

[6] = Dog plasma protein binding (PPB); format: in vitro ADME; conditions: pH 7.4; fraction unbound; dog serum; read-out: Dog PPB (FUplasma)
How it was run: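 Fraction unbound (Fu,plasma) is given as a percentage. It was measured with the method and analysis of the human protein-binding protocol, but using dog serum in place of human serum.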

[7] = Human GLP1R cAMP EC50, HEK293T (nM)
[8] = pH 7.4, aqueous buffer, pH 7.4 Phosphate Buffer - Solubility, 200 mM Phosphate buffer pH 7.4
[9] = pH 7.4, solubility in phosphate buffer at pH 7.4, 200 mM phosphate buffer pH 7.4
[10] = HEK-293T cells overexpressing human GIPR, cAMP accumulation, 1 hr, read-out: Human GIPR cAMP EC50, HEK293T
[11] = read-out: Human GLP1R cAMP EC50, HEK293T

T2 sequence (P43220 24-463): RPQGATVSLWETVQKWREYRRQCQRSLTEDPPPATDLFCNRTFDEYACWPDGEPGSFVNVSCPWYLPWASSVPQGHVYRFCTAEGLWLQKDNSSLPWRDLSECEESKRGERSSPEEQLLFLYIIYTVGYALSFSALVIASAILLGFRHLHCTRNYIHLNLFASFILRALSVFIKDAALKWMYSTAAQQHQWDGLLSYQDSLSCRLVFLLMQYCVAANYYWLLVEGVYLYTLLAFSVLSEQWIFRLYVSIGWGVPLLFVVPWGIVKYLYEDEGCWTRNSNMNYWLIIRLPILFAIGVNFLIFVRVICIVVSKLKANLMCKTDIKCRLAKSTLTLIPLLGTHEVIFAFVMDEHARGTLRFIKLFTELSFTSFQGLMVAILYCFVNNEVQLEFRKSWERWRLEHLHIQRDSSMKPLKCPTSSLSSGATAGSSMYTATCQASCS

Molecule | EC50 [1] | EC50 [2, 7] | Oral Glucose Tolerance Test Percent decrease in blood glucose AUC (%) over 60 mins [3] | solubility [4, 8] | solubility [4, 9] | fraction unbound at 30 min, 1000 nmol/L [5] | fraction unbound at 30 min, 1000 nmol/L [6] | EC50 [1, 10] | EC50 [2, 11] | solubility ([4]; pH 7.4) | solubility ([4]; pH 7.4, aqueous buffer)
CC[C@H](C)[C@H](NC(=O)[C@H](CO)NC(=O)[C@H](Cc1ccc(O)cc1)NC(=O)[C@H](CC(=O)O)NC(=O)[C@H](CO)NC(=O)[C@@H](NC(=O)[C@H](Cc1ccccc1)NC(=O)[C@@H](NC(=O)CNC(=O)[C@H](CCC(=O)O)NC(=O)C(C)(C)NC(=O)[C@H](Cc1ccc(O)cc1)NC)[C@@H](C)O)[C@@H](C)CC)C(=O)N[C@@H](C)C(=O)N[C@@H](CCCCNC(=O)CNC(=O)CNC(=O)CNC(=O)CNC(=O)CNC(=O)CCCCCCCCCCCCCCCCC(=O)O)C(=O)N[C@@H](CC(=O)O)C(=O)N[C@@H](CCCNC(=N)N)C(=O)NC(C)(C)C(=O)N[C@@H](C)C(=O)N[C@@H](CCC(N)=O)C(=O)NC(C)(C)C(=O)N[C@@H](CC(=O)O)C(=O)N[C@@H](Cc1ccccc1)C(=O)N[C@H](C(=O)N[C@@H](CC(N)=O)C(=O)N[C@@H](Cc1c[nH]c2ccccc12)C(=O)N[C@@H](CC(C)C)C(=O)N[C@@H](CC(C)C)C(=O)N[C@@H](C)C(=O)N[C@@H](CCC(N)=O)C(=O)N[C@@H](CCCNC(=N)N)C(=O)N1CCC[C@H]1C(=O)N[C@@H](CO)C(=O)N[C@@H](CO)C(=O)NCC(=O)N[C@@H](C)C(=O)N1CCC[C@H]1C(=O)N1CCC[C@H]1C(=O)N1CCC[C@H]1C(=O)N[C@@H](CO)C(=O)O)C(C)C [Compound 43] | 0.001 nM | 61.7 nM | 97% (3 nmol/kg) | ≥ 30 mg/mL | ≥ 15 mg/mL | – | – | – | – | – | –
CC[C@H](C)[C@H](NC(=O)[C@H](CO)NC(=O)[C@H](Cc1ccc(O)cc1)NC(=O)[C@H](CC(=O)O)NC(=O)[C@H](CO)NC(=O)[C@@H](NC(=O)[C@H](Cc1ccccc1)NC(=O)[C@@H](NC(=O)CNC(=O)[C@H](CCC(=O)O)NC(=O)C(C)(C)NC(=O)[C@H](Cc1ccc(O)cc1)NC)[C@@H](C)O)[C@@H](C)CC)C(=O)N[C@@H](C)C(=O)N[C@@H](CCCCNC(=O)CNC(=O)CNC(=O)CNC(=O)CNC(=O)CNC(=O)CCCCCCCCCCCCCCCCC(=O)O)C(=O)N[C@@H](CC(=O)O)C(=O)N[C@@H](CCCNC(=N)N)C(=O)NC(C)(C)C(=O)N[C@@H](C)C(=O)N[C@@H](CCC(N)=O)C(=O)NC(C)(C)C(=O)N[C@@H](CC(N)=O)C(=O)N[C@@H](Cc1ccccc1)C(=O)N[C@H](C(=O)N[C@@H](CC(N)=O)C(=O)N[C@@H](Cc1c[nH]c2ccccc12)C(=O)N[C@@H](CC(C)C)C(=O)N[C@@H](CC(C)C)C(=O)N[C@@H](C)C(=O)N[C@@H](CCC(N)=O)C(=O)N[C@@H](CCCNC(=N)N)C(=O)N1CCC[C@H]1C(=O)N[C@@H](CO)C(=O)N[C@@H](CO)C(=O)NCC(=O)N[C@@H](C)C(=O)N1CCC[C@H]1C(=O)N1CCC[C@H]1C(=O)N1CCC[C@H]1C(=O)N[C@@H](CO)C(=O)O)C(C)C [Compound 44] | 0.0017 nM | 10.7 nM | 119% (3 nmol/kg) | ≥ 30 mg/mL | ≥ 15 mg/mL | 0.0007 | 0.0004 | – | – | – | –
CC[C@H](C)[C@H](NC(=O)[C@H](Cc1ccccc1)NC(=O)[C@@H](NC(=O)CNC(=O)[C@H](CCC(=O)O)NC(=O)C(C)(C)NC(=O)[C@H](Cc1ccc(O)cc1)NC)[C@@H](C)O)C(=O)N[C@@H](CO)C(=O)N[C@@H](CC(=O)O)C(=O)N[C@@H](Cc1ccc(O)cc1)C(=O)N[C@@H](CO)C(=O)N[C@H](C(=O)NC(C)(C)C(=O)N[C@@H](CCCCNC(=O)CNC(=O)CNC(=O)CNC(=O)CNC(=O)CNC(=O)CCCCCCCCCCCCCCCCCCC(=O)O)C(=O)N[C@@H](CC(=O)O)C(=O)N[C@@H](CCCNC(=N)N)C(=O)NC(C)(C)C(=O)N[C@@H](C)C(=O)N[C@@H](CCC(N)=O)C(=O)NC(C)(C)C(=O)N[C@@H](CC(=O)O)C(=O)N[C@@H](Cc1ccccc1)C(=O)N[C@H](C(=O)N[C@@H](CC(N)=O)C(=O)N[C@@H](Cc1c[nH]c2ccccc12)C(=O)N[C@@H](CC(C)C)C(=O)N[C@@H](CC(C)C)C(=O)N[C@@H](C)C(=O)N[C@@H](CCC(N)=O)C(=O)N[C@@H](CCCNC(=N)N)C(=O)NCC(=O)O)C(C)C)[C@@H](C)CC [Compound 67] | – | – | – | – | – | – | – | 0.0013 nM | 33.9 nM | ≥ 15 mg/mL | ≥ 30 mg/mL
CC[C@H](C)[C@H](NC(=O)[C@H](CO)NC(=O)[C@H](Cc1ccc(O)cc1)NC(=O)[C@H](CC(=O)O)NC(=O)[C@H](CO)NC(=O)[C@@H](NC(=O)[C@H](Cc1ccccc1)NC(=O)[C@@H](NC(=O)CNC(=O)[C@H](CCC(=O)O)NC(=O)C(C)(C)NC(=O)[C@H](Cc1ccc(O)cc1)NC)[C@@H](C)O)[C@@H](C)CC)C(=O)N[C@@H](C)C(=O)N[C@@H](CCCCNC(=O)CNC(=O)CNC(=O)CNC(=O)CNC(=O)CNC(=O)CCCCCCCCCCCCCCCCC(=O)O)C(=O)N[C@@H](CC(=O)O)C(=O)N[C@@H](CCCNC(=N)N)C(=O)NC(C)(C)C(=O)N[C@@H](C)C(=O)N[C@@H](CCC(N)=O)C(=O)NC(C)(C)C(=O)N[C@@H](CC(=O)O)C(=O)N[C@@H](Cc1ccccc1)C(=O)N[C@H](C(=O)N[C@@H](CC(N)=O)C(=O)N[C@@H](Cc1c[nH]c2ccccc12)C(=O)N[C@@H](CC(C)C)C(=O)N[C@@H](CC(C)C)C(=O)N[C@@H](C)C(=O)N[C@@H](CCC(N)=O)C(=O)N[C@@H](CO)C(=O)N1CCC[C@H]1C(=O)N[C@@H](CO)C(=O)N[C@@H](CO)C(=O)NCC(=O)O)C(C)C [Compound 116] | – | – | – | – | – | – | – | 0.001 nM | 110 nM | ≥ 15 mg/mL | ≥ 30 mg/mL
CC[C@H](C)[C@H](NC(=O)[C@H](Cc1ccccc1)NC(=O)[C@@H](NC(=O)CNC(=O)[C@H](CCC(=O)O)NC(=O)C(C)(C)NC(=O)[C@@H](N)Cc1ccc(O)cc1)[C@@H](C)O)C(=O)N[C@@H](CO)C(=O)N[C@@H](CC(=O)O)C(=O)N[C@@H](Cc1ccc(O)cc1)C(=O)N[C@@H](CO)C(=O)N[C@H](C(=O)NC(C)(C)C(=O)N[C@@H](CCCCNC(=O)CNC(=O)CNC(=O)CNC(=O)CNC(=O)CNC(=O)CCCCCCCCCCCCCCCCC(=O)O)C(=O)N[C@@H](CC(=O)O)C(=O)N[C@@H](CCCNC(=N)N)C(=O)NC(C)(C)C(=O)N[C@@H](C)C(=O)N[C@@H](CCC(N)=O)C(=O)NC(C)(C)C(=O)N[C@@H](CC(=O)O)C(=O)N[C@@H](Cc1ccccc1)C(=O)N[C@H](C(=O)N[C@@H](CC(N)=O)C(=O)N[C@@H](Cc1c[nH]c2ccccc12)C(=O)N[C@@H](CC(C)C)C(=O)N[C@@H](CC(C)C)C(=O)N[C@@H](C)C(=O)N[C@@H](CCC(N)=O)C(=O)N[C@@H](CCCNC(=N)N)C(=O)NCC(=O)O)C(C)C)[C@@H](C)CC [Compound 137] | – | – | 23% (3 nmol/kg) | – | – | – | – | 0.0013 nM | 3.47 nM | ≥ 15 mg/mL | ≥ 30 mg/mL
I: H-[NMeY][Aib]EGTFISDYSIALDR[Aib]AQ[Aib]KFVNWLLAQSPSSGAPPPS-OH / II: {C18 diacid}-PAPAPGG (amide I:21-II:C) [Compound 103] | 0.0017 nM | 29.5 nM | – | ≥ 60 mg/mL | ≥ 15 mg/mL | – | – | – | – | – | –
